Experimental data: patent US9586961B2, “Homopiperazine derivatives as protein tyrosine kinase inhibitors and pharmaceutical use thereof” (LEO PHARMA A/S, priority 2010, dated 2017)

Assays:
Type in all cases: biochemical
JAK1 = molecular target: T1, JAK1 (Homo sapiens, UniProt P23458); assay: JAK1 kinase assay (HTRF, inhibition of phosphorylation of a synthetic peptide); conditions: catalytic domain aa 850-1154, GST-tag; 7 μM ATP (Km); read-out: JAK1 kinase inhibitory activity (EC50)
T1 construct: JAK1 (aa 850-1154) and TYK2 (aa 871-1187) are expressed with an N-terminally fused GST-tag; GST (N); purchased Carna Biosciences, Inc; host or cells: baculovirus expression system
T1 sequence (P23458 850-1154): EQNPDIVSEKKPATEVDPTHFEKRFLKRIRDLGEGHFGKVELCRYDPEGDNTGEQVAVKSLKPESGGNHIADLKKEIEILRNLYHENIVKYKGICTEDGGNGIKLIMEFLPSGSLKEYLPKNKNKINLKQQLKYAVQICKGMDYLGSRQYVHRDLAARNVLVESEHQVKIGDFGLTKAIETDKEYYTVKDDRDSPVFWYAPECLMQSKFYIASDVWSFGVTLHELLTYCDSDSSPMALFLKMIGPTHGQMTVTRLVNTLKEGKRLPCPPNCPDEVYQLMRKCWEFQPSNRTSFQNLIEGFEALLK
In short: (§1)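 HTRF detection (streptavidin-XL665, cryptate anti-phospho antibody, overnight in the dark) after EDTA stop of a 20-30 min RT reaction on 1 μM TK substrate-biotin. Km-level ATP per kinase: 7 μM for JAK1 and 13 μM for TYK2, both N-terminal GST, with 50 nM SEB; 4 μM for JAK2 and 2 μM for JAK3, both His-tagged. Catalytic domains only; DMSO 0.75%.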

JAK2 = molecular target: T2, JAK2 (Homo sapiens, UniProt O60674); assay: JAK2 kinase assay (HTRF, inhibition of phosphorylation of a synthetic peptide); conditions: catalytic domain, His-tag; 4 μM ATP (Km); read-out: JAK2 kinase inhibitory activity (EC50)
T2 construct: All four purified enzymes contain only the catalytic domain; His (N); purchased Carna Biosciences, Inc; host or cells: baculovirus expression system
T2 sequence (O60674 849-1124 limits assumed): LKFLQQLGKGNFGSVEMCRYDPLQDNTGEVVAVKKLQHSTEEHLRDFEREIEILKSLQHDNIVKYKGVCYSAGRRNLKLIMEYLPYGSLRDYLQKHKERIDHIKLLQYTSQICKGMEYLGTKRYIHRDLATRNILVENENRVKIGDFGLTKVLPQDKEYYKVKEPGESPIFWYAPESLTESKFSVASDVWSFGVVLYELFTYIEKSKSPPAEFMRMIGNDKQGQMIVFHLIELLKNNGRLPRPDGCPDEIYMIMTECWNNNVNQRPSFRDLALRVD
In short: as §1

JAK3 = molecular target: T3, JAK3 (Homo sapiens, UniProt P52333); assay: JAK3 kinase assay (HTRF, inhibition of phosphorylation of a synthetic peptide); conditions: catalytic domain, His-tag; 2 μM ATP (Km); read-out: JAK3 kinase inhibitory activity (EC50)
T3 construct: All four purified enzymes contain only the catalytic domain; His (N); purchased Carna Biosciences, Inc; host or cells: baculovirus expression system
T3 sequence (P52333 822-1111 limits assumed): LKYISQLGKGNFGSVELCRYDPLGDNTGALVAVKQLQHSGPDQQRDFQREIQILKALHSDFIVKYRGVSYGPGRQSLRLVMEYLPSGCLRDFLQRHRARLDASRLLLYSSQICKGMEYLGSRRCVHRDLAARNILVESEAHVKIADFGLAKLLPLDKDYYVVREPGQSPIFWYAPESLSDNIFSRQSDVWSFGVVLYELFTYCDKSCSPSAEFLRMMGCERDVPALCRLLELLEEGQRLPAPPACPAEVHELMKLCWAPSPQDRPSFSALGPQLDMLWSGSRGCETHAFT
In short: as §1

Structure (SMILES) | EC50 (JAK1) | EC50 (JAK2) | EC50 (JAK3)
O=C(c1c[nH]cn1)N1CCN(c2ncnc3[nH]ccc23)CC2(CC2)C1 [Example 133, 1H-imidazol-4-yl-[5-(7H-pyrrolo[2,3-d]pyrimidin-4-yl)-5,8-diazaspiro[2.6]nonan-8-yl]methanone] | 100 to 1000 nM | 100 to 1000 nM | 100 to 1000 nM
O=C(Cc1cscn1)N1CCN(c2ncnc3[nH]ccc23)CC2(CC2)C1 [Example 88, 1-[5-(7H-pyrrolo[2,3-d]pyrimidin-4-yl)-5,8-diazaspiro[2.6]nonan-8-yl]-2-thiazol-4-yl-ethanone] | 100 to 1000 nM | 100 to 1000 nM | 100 to 1000 nM
Cc1nnc(C(=O)N2CCN(c3ncnc4[nH]ccc34)CC3(CC3)C2)o1 [Example 194, (5-methyl-1,3,4-oxadiazol-2-yl)-[5-(7H-pyrrolo[2,3-d]pyrimidin-4-yl)-5,8-diazaspiro[2.6]nonan-8-yl]methanone] | 100 to 1000 nM | 100 to 1000 nM | > 1000 nM
O=C(Cc1ccccc1Cl)N1CCN(c2ncnc3[nH]ccc23)CC2(CC2)C1 [Example 173, 2-(2-chlorophenyl)-1-[5-(7H-pyrrolo[2,3-d]pyrimidin-4-yl)-5,8-diazaspiro[2.6]nonan-8-yl]ethanone] | 100 to 1000 nM | < 100 nM | 100 to 1000 nM
Cc1cccc(CC(=O)N2CCN(c3ncnc4[nH]ccc34)CC3(CC3)C2)c1 [Example 262, 2-(m-tolyl)-1-[5-(7H-pyrrolo[2,3-d]pyrimidin-4-yl)-5,8-diazaspiro[2.6]nonan-8-yl]ethanone] | 100 to 1000 nM | < 100 nM | > 1000 nM
CN1CCN(CC(=O)N2CCCN(c3ncnc4[nH]ccc34)CC23CC3)C1=O [Example 83, 1-methyl-3-[2-oxo-2-[5-(7H-pyrrolo[2,3-d]pyrimidin-4-yl)-5,9-diazaspiro[2.6]nonan-9-yl]ethyl]imidazolidin-2-one] | 100 to 1000 nM | 100 to 1000 nM | 100 to 1000 nM
CC(C)(C(=O)N1CCN(c2ncnc3[nH]ccc23)CC2(CC2)C1)c1ccc(Cl)cc1 [Example 269, 2-(4-chlorophenyl)-2-methyl-1-[5-(7H-pyrrolo[2,3-d]pyrimidin-4-yl)-5,8-diazaspiro[2.6]nonan-8-yl]propan-1-one] | 100 to 1000 nM | 100 to 1000 nM | 100 to 1000 nM
Cc1cnc(C(=O)N2CCN(c3ncnc4[nH]ccc34)CC3(CC3)C2)s1 [Example 241, (5-methylthiazol-2-yl)-[5-(7H-pyrrolo[2,3-d]pyrimidin-4-yl)-5,8-diazaspiro[2.6]nonan-8-yl]methanone] | 100 to 1000 nM | 100 to 1000 nM | 100 to 1000 nM
O=C(c1ccon1)N1CCN(c2ncnc3[nH]ccc23)CC2(CC2)C1 [Example 152, isoxazol-3-yl-[5-(7H-pyrrolo[2,3-d]pyrimidin-4-yl)-5,8-diazaspiro[2.6]nonan-8-yl]methanone] | 100 to 1000 nM | 100 to 1000 nM | 100 to 1000 nM
Cc1nc(CC(=O)N2CCN(c3ncnc4[nH]ccc34)CC3(CC3)C2)cs1 [Example 254, 2-(2-methylthiazol-4-yl)-1-[5-(7H-pyrrolo[2,3-d]pyrimidin-4-yl)-5,8-diazaspiro[2.6]nonan-8-yl]ethanone] | 100 to 1000 nM | 100 to 1000 nM | > 1000 nM
O=C(c1cn[nH]c1)N1CCN(c2ncnc3[nH]ccc23)CC2(CC2)C1 [Example 157, 1H-pyrazol-4-yl-[5-(7H-pyrrolo[2,3-d]pyrimidin-4-yl)-5,8-diazaspiro[2.6]nonan-8-yl]methanone] | 100 to 1000 nM | 100 to 1000 nM | 100 to 1000 nM
O=C(c1cccc(O)n1)N1CCN(c2ncnc3[nH]ccc23)CC2(CC2)C1 [Example 163, (6-hydroxy-2-pyridyl)-[5-(7H-pyrrolo[2,3-d]pyrimidin-4-yl)-5,8-diazaspiro[2.6]nonan-8-yl]methanone] | 100 to 1000 nM | 100 to 1000 nM | > 1000 nM
Cc1cnccc1C(=O)N1CCCN(c2ncnc3[nH]ccc23)CC12CC2 [Example 138, (3-methyl-4-pyridyl)-[5-(7H-pyrrolo[2,3-d]pyrimidin-4-yl)-5,9-diazaspiro[2.6]nonan-9-yl]methanone] | > 1000 nM | 100 to 1000 nM | > 1000 nM
O=C(Cc1ccc(Cl)cc1)N1CCCN(c2ncnc3[nH]ccc23)CC12CC2 [Example 126, 2-(4-chlorophenyl)-1-[5-(7H-pyrrolo[2,3-d]pyrimidin-4-yl)-5,9-diazaspiro[2.6]nonan-9-yl]ethanone] | 100 to 1000 nM | < 100 nM | 100 to 1000 nM
Cc1cc(C(=O)N2CCN(c3ncnc4[nH]ccc34)CC3(CC3)C2)[nH]n1 [Example 148, (5-methyl-1H-pyrazol-3-yl)-[5-(7H-pyrrolo[2,3-d]pyrimidin-4-yl)-5,8-diazaspiro[2.6]nonan-8-yl]methanone] | 100 to 1000 nM | 100 to 1000 nM | > 1000 nM
O=C(c1ccccc1F)N1CCN(c2ncnc3[nH]ccc23)CC2(CC2)C1 [Example 111, (2-fluorophenyl)-[5-(7H-pyrrolo[2,3-d]pyrimidin-4-yl)-5,8-diazaspiro[2.6]nonan-8-yl]methanone] | 100 to 1000 nM | < 100 nM | > 1000 nM
O=C(Cc1cncs1)N1CCN(c2ncnc3[nH]ccc23)CC2(CC2)C1 [Example 252, 1-[5-(7H-pyrrolo[2,3-d]pyrimidin-4-yl)-5,8-diazaspiro[2.6]nonan-8-yl]-2-thiazol-5-yl-ethanone] | 100 to 1000 nM | < 100 nM | 100 to 1000 nM
Cc1nnc(C(=O)N2CCCN(c3ncnc4[nH]ccc34)CC23CC3)o1 [Example 154, (5-methyl-1,3,4-oxadiazol-2-yl)-[5-(7H-pyrrolo[2,3-d]pyrimidin-4-yl)-5,9-diazaspiro[2.6]nonan-9-yl]methanone] | 100 to 1000 nM | < 100 nM | 100 to 1000 nM
O=C(c1ccc(Cl)cc1)N1CCCN(c2ncnc3[nH]ccc23)CC12CC2 [Example 180, (4-chlorophenyl)-[5-(7H-pyrrolo[2,3-d]pyrimidin-4-yl)-5,9-diazaspiro[2.6]nonan-9-yl]methanone] | < 100 nM | < 100 nM | 100 to 1000 nM
O=C(c1cncs1)N1CCN(c2ncnc3[nH]ccc23)CC2(CC2)C1 [Example 239, [5-(7H-pyrrolo[2,3-d]pyrimidin-4-yl)-5,8-diazaspiro[2.6]nonan-8-yl]-thiazol-5-yl-methanone] | 100 to 1000 nM | 100 to 1000 nM | 100 to 1000 nM
O=C(c1cncs1)N1CCCN(c2ncnc3[nH]ccc23)CC12CC2 [Example 240, [5-(7H-pyrrolo[2,3-d]pyrimidin-4-yl)-5,9-diazaspiro[2.6]nonan-9-yl]-thiazol-5-yl-methanone] | 100 to 1000 nM | 100 to 1000 nM | 100 to 1000 nM
Cc1sncc1C(=O)N1CCCN(c2ncnc3[nH]ccc23)CC12CC2 [Example 230, (5-methylisothiazol-4-yl)-[5-(7H-pyrrolo[2,3-d]pyrimidin-4-yl)-5,9-diazaspiro[2.6]nonan-9-yl]methanone] | 100 to 1000 nM | < 100 nM | 100 to 1000 nM
Cc1noc(C)c1C(=O)N1CCN(c2ncnc3[nH]ccc23)CC2(CC2)C1 [Example 170, (3,5-dimethylisoxazol-4-yl)-[5-(7H-pyrrolo[2,3-d]pyrimidin-4-yl)-5,8-diazaspiro[2.6]nonan-8-yl]methanone] | > 1000 nM | > 1000 nM | > 1000 nM
O=C(c1cnsc1)N1CCCN(c2ncnc3[nH]ccc23)CC12CC2 [Example 211, isothiazol-4-yl-[5-(7H-pyrrolo[2,3-d]pyrimidin-4-yl)-5,9-diazaspiro[2.6]nonan-9-yl]methanone] | 100 to 1000 nM | 100 to 1000 nM | 100 to 1000 nM
N#CCc1ccc(CC(=O)N2CCN(c3ncnc4[nH]ccc34)CC3(CC3)C2)cc1 [Example 266, 2-[4-[2-oxo-2-[5-(7H-pyrrolo[2,3-d]pyrimidin-4-yl)-5,8-diazaspiro[2.6]nonan-8-yl]ethyl]phenyl]acetonitrile] | < 100 nM | < 100 nM | 100 to 1000 nM
Cc1ncccc1C(=O)N1CCN(c2ncnc3[nH]ccc23)CC2(CC2)C1 [Example 135, (2-methyl-3-pyridyl)-[5-(7H-pyrrolo[2,3-d]pyrimidin-4-yl)-5,8-diazaspiro[2.6]nonan-8-yl]methanone] | > 1000 nM | > 1000 nM | > 1000 nM
Cc1cc(C(=O)N2CCCN(c3ncnc4[nH]ccc34)CC23CC3)ccn1 [Example 172, (2-methyl-4-pyridyl)-[5-(7H-pyrrolo[2,3-d]pyrimidin-4-yl)-5,9-diazaspiro[2.6]nonan-9-yl]methanone] | 100 to 1000 nM | 100 to 1000 nM | > 1000 nM
Cc1ncccc1C(=O)N1CCCN(c2ncnc3[nH]ccc23)CC12CC2 [Example 136, (2-methyl-3-pyridyl)-[5-(7H-pyrrolo[2,3-d]pyrimidin-4-yl)-5,9-diazaspiro[2.6]nonan-9-yl]methanone] | > 1000 nM | 100 to 1000 nM | > 1000 nM
N#C[C@H]1CCCN1C(=O)N1CCN(c2ncnc3[nH]ccc23)CC2(CC2)C1 [Example 221, (2R)-1-[5-(7H-pyrrolo[2,3-d]pyrimidin-4-yl)-5,8-diazaspiro[2.6]nonane-8-carbonyl]pyrrolidine-2-carbonitrile] | 100 to 1000 nM | < 100 nM | 100 to 1000 nM
